Assay results from patent US11708348B2, “Protease inhibitors for treatment of coronavirus infections” (The Scripps Research Institute, priority 2021, dated 2023).

Test system: SARS-CoV-2 strain USA-WA1/2020
Assay: microbe, parasite or virus in culture
Assay type: cell-based
Conditions: Severe acute respiratory syndrome coronavirus 2, HeLa-ACE2, 24 h, HeLa-ACE2 cells, SARS-CoV-2 infection, 24 h; bound printed in cell; read-out: EC50, uM (Hela)

| Structure (SMILES) | EC50 |
| --- | --- |
| CC[C@@H](O)C(=O)N[C@@H](CC1(C)CC1)C(=O)N[C@@H](C[C@@H]1CCNC1=O)C(=O)COC(F)(F)F [Compound 376, (R)-2-hydroxy-N-((S)-3-(1-methylcyclopropyl)-1-oxo-1-(((S)-3-oxo-l-((S)-2-oxopyrrolidin-3-yl)-4-(trifluoromethoxy)butan-2-yl)amino)propan-2-yl)butanamide] | > 1 µM |
| O=C1NCC[C@H]1C[C@H](NC(=O)[C@@H]1C[C@H]2C[C@H]2N1C(=O)[C@@H]1CCCO1)C(=O)COC(F)(F)F [Compound 304, (1R,3S,5R)-N-(3-oxo-1-((S)-2-oxopyrrolidin-3-yl)-4-(trifluoromethoxy)butan-2-yl)-2-((S)-tetrahydrofuran-2-carbonyl)-2-azabicyclo[3.1.0]-hexane-3-carboxamide] | > 1 µM |

Same assay, conditions: Severe acute respiratory syndrome coronavirus 2, HeLa-ACE2, 24 h, HeLa-ACE2 cells, SARS-CoV-2 infection, 24 h; class symbols; read-out: EC50, uM (Hela)

| Structure (SMILES) | EC50 |
| --- | --- |
| Cc1ccccc1NC(=O)C(=O)N[C@@H](Cc1ccccc1)C(=O)N[C@@H](C[C@@H]1CCNC1=O)C(=O)COc1c(F)c(F)cc(F)c1F [Compound 106, N1-((S)-1-oxo-1-(((S)-3-oxo-1-((S)-2-oxopyrrolidin-3-yl)-4-(2,3,5,6-tetrafluorophenoxy)butan-2-yl)amino)-3-phenylpropan-2-yl)-N2-(o-tolyl)oxalamide] | < 0.05 µM |
| CC(C)C[C@H](NC(=O)C(=O)NC1CCOCC1)C(=O)N[C@@H](C[C@@H]1CCNC1=O)C(=O)COc1c(F)c(F)cc(F)c1F [Compound 101, N1-((S)-4-methyl-1-oxo-1-(((S)-3-oxo-1-((S)-2-oxopyrrolidin-3-yl)-4-(2,3,5,6-tetrafluorophenoxy)butan-2-yl)amino)pentan-2-yl)-N2-(tetrahydro-2H-pyran-4-yl)oxalamide] | 0.05 to 0.2 µM |
| O=C(Nc1ccccc1F)C(=O)N[C@@H](CC1CC1)C(=O)N[C@@H](C[C@@H]1CCNC1=O)C(=O)COc1c(F)c(F)cc(F)c1F [Compound 109, N1-((S)-3-cyclopropyl-1-oxo-1-(((S)-3-oxo-1-((S)-2-oxopyrrolidin-3-yl)-4-(2,3,5,6-tetrafluorophenoxy)butan-2-yl)amino)propan-2-yl)-N2-(2-fluorophenyl)oxalamide] | < 0.05 µM |
| Cc1cccc(C)c1NC(=O)C(=O)N[C@@H](CC(C)C)C(=O)N[C@@H](C[C@@H]1CCNC1=O)C(=O)COc1c(F)c(F)cc(F)c1F [Compound 64, N1-(2,6-dimethylphenyl)-N2-((S)-4-methyl-1-oxo-1-(((S)-3-oxo-1-((S)-2-oxopyrrolidin-3-yl)-4-(2,3,5,6-tetrafluorophenoxy)butan-2-yl)amino)pentan-2-yl)oxalamide] | < 0.05 µM |
| CCc1cccc(CC)c1NC(=O)C(=O)N[C@@H](CC(C)C)C(=O)N[C@@H](C[C@@H]1CCNC1=O)C(=O)COC(F)(F)F [Compound 167, N1-(2,6-diethylphenyl)-N2-((S)-4-methyl-1-oxo-1-(((S)-3-oxo-1-((S)-2-oxopyrrolidin-3-yl)-4-(trifluoromethoxy)butan-2-yl)amino)pentan-2-yl)oxalamide] | < 0.05 µM |
| CC(C)[C@@H](O)C(=O)N1C[C@@H]2CCC[C@@H]2[C@H]1C(=O)N[C@@H](C[C@@H]1CCNC1=O)C(=O)COC(F)(F)F [Compound 359, (1S,3aR,6aS)-2-((R)-2-hydroxy-3-methylbutanoyl)-N-((S)-3-oxo-1-((S)-2-oxopyrrolidin-3-yl)-4-(trifluoromethoxy)butan-2-yl)octahydrocyclo-penta[c]pyrrole-1-carboxamide] | 0.05 to 0.2 µM |

Same assay, conditions: Severe acute respiratory syndrome coronavirus 2, HeLa-ACE2, 24 h, HeLa-ACE2 cells, SARS-CoV-2 infection, 24 h; read-out: EC50, uM (Hela)

| Structure (SMILES) | EC50 |
| --- | --- |
| O=C(NC(CC1CCOCC1)C(=O)N[C@@H](C[C@@H]1CCNC1=O)C(=O)COC(F)(F)F)C(=O)NC12CC(F)(C1)C2 (stereo partly drawn) [Compound 510, N1-(3-fluorobicyclo-[1.1.1]pentan-1-yl)-N2-(1-oxo-1-(((S)-3-oxo-1-((S)-2-oxopyrrolidin-3-yl)-4-(trifluoromethoxy)butan-2-yl)amino)-3-(tetrahydro-2H-pyran-4-yl)propan-2-yl)oxalamide] | 0.2 to 0.5 µM |
| CC(C)C[C@@H](O)C(=O)N1C2CCC(CC2)[C@H]1C(=O)N[C@@H](C[C@@H]1CCNC1=O)C(=O)COC(F)(F)F [Compound 642, (S)-2-((R)-2-hydroxy-4-methylpentanoyl)-N-((S)-3-oxo-1-((S)-2-oxopyrrolidin-3-yl)-4-(trifluoromethoxy)butan-2-yl)-2-azabicyclo[2.2.2]octane-3-carboxamide] | < 0.05 µM |
| CC(C)(O)CC(=O)N1CC2(CC2)C[C@H]1C(=O)N[C@@H](C[C@@H]1CCNC1=O)C(=O)COC(F)(F)F [Compound 717, (S)-5-(3-hydroxy-3-methylbutanoyl)-N-((S)-3-oxo-1-((S)-2-oxopyrrolidin-3-yl)-4-(trifluoromethoxy)butan-2-yl)-5-azaspiro[2.4]heptane-6-carboxamide] | 0.05 to 0.2 µM |
| CC(C)(C)C[C@H](NC(=O)c1cc(C(F)F)on1)C(=O)N[C@@H](C[C@@H]1CCNC1=O)C(=O)COC(F)(F)F [Compound 532, 5-(difluoromethyl)-N-((S)-4,4-dimethyl-1-oxo-1-(((S)-3-oxo-1-((S)-2-oxopyrrolidin-3-yl)-4-(trifluoromethoxy)butan-2-yl)amino)pentan-2-yl)isoxazole-3-carboxamide] | < 0.05 µM |
| CC1(CC(=O)N2CC3(CC3)C[C@H]2C(=O)N[C@@H](C[C@@H]2CCNC2=O)C(=O)COC(F)(F)F)CCCC1 [Compound 711, (S)-5-(2-(l-methylcyclopentyl)acetyl)-N-((S)-3-oxo-1-((S)-2-oxopyrrolidin-3-yl)-4-(trifluoromethoxy)butan-2-yl)-5-azaspiro[2.4]heptane-6-carboxamide] | < 0.05 µM |
| O=C1NCC[C@H]1C[C@H](NC(=O)[C@@H]1CC2(CC2)CN1C(=O)C1CC(F)(F)C1)C(=O)COC(F)(F)F [Compound 721, (S)-5-(3,3-difluorocyclobutane-1-carbonyl)-N-((S)-3-oxo-1-((S)-2-oxopyrrolidin-3-yl)-4-(trifluoromethoxy)butan-2-yl)-5-azaspiro[2.4]heptane-6-carboxamide] | 0.05 to 0.2 µM |
| CC(C)C[C@@H](O)C(=O)N[C@@H](Cc1cccc(F)c1)C(=O)N[C@@H](C[C@@H]1CCNC1=O)C(=O)COC(F)(F)F [Compound 671, (R)-N-((S)-3-(3-fluorophenyl)-1-oxo-1-(((S)-3-oxo-1-((S)-2-oxopyrrolidin-3-yl)-4-(trifluoromethoxy)butan-2-yl)amino)propan-2-yl)-2-hydroxy-4-methylpentanamide] | < 0.05 µM |
| O=C1NCC[C@H]1C[C@H](NC(=O)[C@@H]1CC2(CC2)CN1C(=O)CO)C(=O)COC(F)(F)F [Compound 698, (S)-5-(2-hydroxyacetyl)-N-((S)-3-oxo-1-((S)-2-oxopyrrolidin-3-yl)-4-(trifluoromethoxy)butan-2-yl)-5-azaspiro[2.4]heptane-6-carboxamide] | 0.05 to 0.2 µM |
| O=C1NCC[C@H]1C[C@H](NC(=O)[C@@H]1CC2(CC2)CN1C(=O)C1(O)CCCCC1)C(=O)COC(F)(F)F [Compound 424, (S)-5-(l-hydroxycyclohexane-1-carbonyl)-N-((S)-3-oxo-1-((S)-2-oxopyrrolidin-3-yl)-4-(trifluoromethoxy)butan-2-yl)-5-azaspiro[2.4]heptane-6-carboxamide] | 0.05 to 0.2 µM |
| O=C1NCC[C@H]1C[C@H](NC(=O)[C@@H]1CC2(CC2)CN1C(=O)C1CCC(F)(F)C1)C(=O)COC(F)(F)F (stereo partly drawn) [Compound 720, (6S)-5-(3,3-difluorocyclopentane-1-carbonyl)-N-((S)-3-oxo-1-((S)-2-oxopyrrolidin-3-yl)-4-(trifluoromethoxy)butan-2-yl)-5-azaspiro[2.4]heptane-6-carboxamide] | < 0.05 µM |
| O=C1NCC[C@H]1C[C@H](NC(=O)[C@@H]1CC2(CC2)CN1C(=O)C(O)c1ccccn1)C(=O)COC(F)(F)F (stereo partly drawn) [Compound 418, (6S)-5-(2-hydroxy-2-(pyridin-2-yl)acetyl)-N-((S)-3-oxo-1-((S)-2-oxopyrrolidin-3-yl)-4-(trifluoromethoxy)butan-2-yl)-5-azaspiro[2.4]heptane-6-carboxamide] | 0.05 to 0.2 µM |
| O=C(N[C@@H](CC1CC1)C(=O)N[C@@H](C[C@@H]1CCNC1=O)C(=O)COC(F)(F)F)C(=O)NC1(C(F)(F)F)CC1 [Compound 512, N1-((S)-3-cyclopropyl-1-oxo-1-(((S)-3-oxo-1-((S)-2-oxopyrrolidin-3-yl)-4-(trifluoromethoxy)butan-2-yl)amino)propan-2-yl)-N2-(1-(trifluoromethyl)-cyclopropyl)-oxalamide] | 0.05 to 0.2 µM |
| [2H]C([2H])([2H])C([2H])([2H])C([2H])([2H])C([2H])([2H])C(=O)N1CC2(CC2)C[C@H]1C(=O)N[C@@H](C[C@@H]1CCNC1=O)C(=O)COC(F)(F)F [Compound 732, (S)-N-((S)-3-oxo-1-((S)-2-oxopyrrolidin-3-yl)-4-(trifluoromethoxy)butan-2-yl)-5-(pentanoyl-d9)-5-azaspiro[2.4]heptane-6-carboxamide] | < 0.05 µM |
| CNC(=O)C(=O)N[C@@H](Cc1cccc(F)c1)C(=O)N[C@@H](C[C@@H]1CCNC1=O)C(=O)COC(F)(F)F [Compound 677, N1-((S)-3-(3-fluorophenyl)-1-oxo-1-(((S)-3-oxo-1-((S)-2-oxopyrrolidin-3-yl)-4-(trifluoromethoxy)butan-2-yl)amino)propan-2-yl)-N2-methyloxalamide] | < 0.05 µM |
| O=C(NC12CC(F)(C1)C2)C(=O)N1C[C@@H]2CCC[C@@H]2[C@H]1C(=O)N[C@@H](C[C@@H]1CCNC1=O)C(=O)COC(F)(F)F [Compound 525, (1S,3aR,6aS)-2-(2-((3-fluorobicyclo[1.1.1]-pentan-1-yl)amino)-2-oxoacetyl)-N-((S)-3-oxo-1-((S)-2-oxopyrrolidin-3-yl)-4-(trifluoromethoxy)butan-2-yl)octahydrocyclo-penta[c]pyrrole-1-carboxamide] | < 0.05 µM |
| C[C@H](C(=O)N1CC2(CC2)C[C@H]1C(=O)N[C@@H](C[C@@H]1CCNC1=O)C(=O)COC(F)(F)F)c1ccccc1 [Compound 628, (S)-N-((S)-3-oxo-1-((S)-2-oxopyrrolidin-3-yl)-4-(trifluoromethoxy)butan-2-yl)-5-((S)-2-phenylpropanoyl)-5-azaspiro[2.4]heptane-6-carboxamide] | 0.05 to 0.2 µM |
